Assay results: PubChem BioAssay (NCI)
Values joined by “and” are separate entries in the source; they are usually repeats but may differ in a detail not shown here. Equal entries are not always repeated.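 How tested: cells in 96-well plates exposed to compound for 48 hours at five concentrations. The concentration for 50% growth inhibition is given as GI50. Definition used: TGI = concentration required for complete inhibition of growth.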

Columns and labels:
Test in all cases: NCI tumour cell line growth inhibition, 48 h
[1] = test system: ACHN renal
[2] = test system: BT-549 breast
[3] = test system: K-562 leukemia
[4] = test system: MALME-3M melanoma
[5] = test system: MOLT-4 leukemia
[6] = test system: NCI-H226 lung
[7] = test system: NCI-H460 lung
[8] = test system: T-47D breast
[9] = test system: UACC-257 melanoma
[10] = test system: UO-31 renal

| SMILES | TGI [1] | TGI [2] | TGI [3] | TGI [4] | TGI [5] | TGI [6] | TGI [7] | TGI [8] | TGI [9] | TGI [10] | GI50 [1] | GI50 [2] | GI50 [3] | GI50 [4] | GI50 [5] | GI50 [6] | GI50 [7] | GI50 [8] | GI50 [9] | GI50 [10] |
| --- | --- | --- | --- | --- | --- | --- | --- | --- | --- | --- | --- | --- | --- | --- | --- | --- | --- | --- | --- | --- |
| CC(C)C1CN1CC(O)Cn1ccnc1[N+](=O)[O-] (configuration not stated) | > 100 µM | > 100 µM | > 100 µM | > 100 µM | > 100 µM | > 100 µM | > 100 µM | > 100 µM | > 100 µM | > 100 µM | – | – | – | – | – | – | – | – | – | – |
| COc1ccc(/C=C2/CN(C(=O)c3ccccc3F)C/C(=C\c3ccc(OC)cc3)C2=O)cc1 | 9.46 µM | 4.32 µM | > 100 µM | 21.3 µM | 49.5 µM | > 100 µM | 30.8 µM | 76.2 µM | 13.3 µM | 6.69 µM | 2.95 µM | 2.05 µM | 3.49 µM | 5.83 µM | 3.79 µM | 29.5 µM | 8.81 µM | 5.65 µM | 3.24 µM | 1.9 µM |
| O=C(Cn1ccnc1[N+](=O)[O-])N(CCO)CCO | > 250 µM | > 250 µM | > 1250 µM | 224 µM and > 1250 µM | > 1250 µM | > 1250 µM | > 1250 µM | > 250 µM | > 1250 µM | > 1250 µM | – | – | > 1250 µM | > 1250 µM | > 1250 µM | > 1250 µM | > 250 µM | – | > 1250 µM | > 1250 µM |
| COc1ccc(-c2nc(-c3nc4ccc(F)cc4[nH]3)cc3c2[nH]c2ccccc23)cc1 | > 100 µM | 9.72 µM | > 100 µM | 8.99 µM | 6.14 µM | > 100 µM | 5.81 µM | > 100 µM | 4.8 µM | 8.74 µM | 2.87 µM | 3.18 µM | 2.79 µM | 2.33 µM | 1.56 µM | 3.12 µM | 1.98 µM | 2.56 µM | 2.01 µM | 2.54 µM |
| CN(C)c1c(Cl)c(=O)oc2c1ccc1nc(-c3ccccc3)sc12 | > 100 µM | > 100 µM | > 100 µM | > 100 µM | > 100 µM | > 100 µM | > 100 µM | > 100 µM | > 100 µM | > 100 µM | – | – | – | – | – | – | – | – | – | – |
| Cc1c(Cl)ccc2c1NC(=O)C2(O)CC(=O)c1ccc(Cl)cc1Cl (configuration not stated) | > 50 µM | > 50 µM | > 50 µM | > 50 µM | > 50 µM | > 50 µM | > 50 µM | > 50 µM | > 50 µM | > 50 µM | – | – | – | – | – | – | – | – | – | – |
| CS(=O)(=O)c1nccc(-c2c(-c3cccc(OCc4ccc(F)cc4)c3)nc3sccn23)n1 | > 100 µM | > 100 µM | > 100 µM | > 100 µM | > 100 µM | > 100 µM | > 100 µM | > 100 µM | 14.8 µM | 5.57 µM | 50.1 µM | 8.89 µM | 6.67 µM | 67.3 µM | 2.64 µM | 21.6 µM | 56.7 µM | 9.52 µM | 5 µM | 2.19 µM |
| O=S(=O)(c1cccc(C(F)(F)F)c1)N1c2ccccc2-n2cccc2C1c1cccnc1 (configuration not stated) | > 74.1 µM | > 71.8 µM | > 86.4 µM | > 54.5 µM | > 56.6 µM | > 53 µM | > 51.1 µM | > 70.4 µM | > 54.6 µM | 34.3 µM | – | – | – | – | – | – | – | – | – | – |
